The SangsterLogP compilation

Experiment: method code SF-AS, from PMID: 9631499

`Cc1ccc(-c2nnc(CCON=Cc3ccc(Cl)cc3Cl)[nH]2)cc1` and `Cc1cccc(-c2nnc(CCON=Cc3ccc(Cl)cc3Cl)[nH]2)c1` are the same in logP: 4.1 for the first, 4.1 for the second.

`Cc1ccc(-c2nnc(CCON=Cc3ccc(Cl)cc3)[nH]2)cc1` and `Cc1cccc(-c2nnc(CCON=Cc3ccc(Cl)cc3)[nH]2)c1` are the same in logP: 3.39 for the first, 3.39 for the second.

`Cc1cccc(-c2nnc(CCON=Cc3ccc(Cl)cc3Cl)o2)c1` and `Cc1ccc(-c2nnc(CCON=Cc3ccc(Cl)cc3Cl)o2)cc1` are the same in logP: 4.28 for the first, 4.28 for the second.

Going from `Cc1ccc(-c2nnc(CCON=Cc3ccc(Cl)cc3)o2)cc1` to `Clc1ccc(C=NOCCc2nnc(-c3ccccc3)o2)cc1`, the logP falls from 3.57 to 3.01.

`Cc1ccc(C=NOCCc2nnc(-c3cccc(C)c3)o2)cc1` and `Clc1ccc(C=NOCCc2nnc(-c3ccccc3)o2)c(Cl)c1` are within 0.2 log units of each other in logP: 3.57 for the first, 3.72 for the second.

Work on `Clc1ccc(C=NOCCc2nnc(-c3ccccc3)[nH]2)cc1` yielded a logP of 2.83.
